Assay results taken from patent publication US7279161B2, “Factor IX/factor IXa activating antibodies and antibody derivatives” (Baxter Aktiengesellschaft, priority 1999, dated 2007).

Tested on: FVIII deficient plasma
Experiment: aPTT based one stage clotting assay in FVIII deficient plasma
Assay type: biochemical, human
Method in brief: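 Test samples preincubated 4 min with FVIII-deficient plasma and aPTT reagent (DAPTTIN or Pathromtin SL), optionally with 50 ng activated FIX; clotting started with 25 mM CaCl2. Read-out is clotting time from start to clot formation, set against FVIII, buffer or scrambled-peptide controls.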

RRREGGGYYVNWYFDRRR [A1/3]
reduction in the clotting time (Pathromtin SL, in the absence of FIXa): no reduction of the clotting time was detectable
reduction in the clotting time (Pathromtin SL, in the presence of FIXa): dose dependent reduction in the clotting time
average clotting time (Table 3A Exp. 1, DAPTTIN, 2.5 μM, 2.2 nM FIXa): 91 s
clotting time (Table 3A Exp. 1, DAPTTIN, 2.5 μM, 2.2 nM FIXa, duplicate 1): 91.1 s
clotting time (Table 3A Exp. 1, DAPTTIN, 2.5 μM, 2.2 nM FIXa, duplicate 2): 91 s
average clotting time (Table 3A Exp. 1, DAPTTIN, 2.5 μM, w/o FIXa): 105 s
clotting time (Table 3A Exp. 1, DAPTTIN, 2.5 μM, w/o FIXa, duplicate 1): 105.2 s
clotting time (Table 3A Exp. 1, DAPTTIN, 2.5 μM, w/o FIXa, duplicate 2): 104.8 s
average clotting time (Table 3A Exp. 1, DAPTTIN, 7.5 μM, 2.2 nM FIXa): 73 s
clotting time (Table 3A Exp. 1, DAPTTIN, 7.5 μM, 2.2 nM FIXa, duplicate 1): 73.1 s
clotting time (Table 3A Exp. 1, DAPTTIN, 7.5 μM, 2.2 nM FIXa, duplicate 2): 72.7 s
average clotting time (Table 3A Exp. 1, DAPTTIN, 7.5 μM, w/o FIXa): 98 s
clotting time (Table 3A Exp. 1, DAPTTIN, 7.5 μM, w/o FIXa, duplicate 1): 97.8 s
clotting time (Table 3A Exp. 1, DAPTTIN, 7.5 μM, w/o FIXa, duplicate 2): 97.9 s
average clotting time (Table 3A Exp. 1, DAPTTIN, 12.5 μM, 2.2 nM FIXa): 60 s
clotting time (Table 3A Exp. 1, DAPTTIN, 12.5 μM, 2.2 nM FIXa, duplicate 1): 60.2 s
clotting time (Table 3A Exp. 1, DAPTTIN, 12.5 μM, 2.2 nM FIXa, duplicate 2): 58.9 s
average clotting time (Table 3A Exp. 1, DAPTTIN, 12.5 μM, w/o FIXa): 80 s
clotting time (Table 3A Exp. 1, DAPTTIN, 12.5 μM, w/o FIXa, duplicate 1): 80.2 s
clotting time (Table 3A Exp. 1, DAPTTIN, 12.5 μM, w/o FIXa, duplicate 2): 80.6 s
average clotting time (Table 3A Exp. 1, DAPTTIN, 15 μM, 2.2 nM FIXa): 60 s
clotting time (Table 3A Exp. 1, DAPTTIN, 15 μM, 2.2 nM FIXa, duplicate 1): 59.3 s
clotting time (Table 3A Exp. 1, DAPTTIN, 15 μM, 2.2 nM FIXa, duplicate 2): 59.9 s
average clotting time (Table 3A Exp. 1, DAPTTIN, 15 μM, w/o FIXa): 78 s
clotting time (Table 3A Exp. 1, DAPTTIN, 15 μM, w/o FIXa, duplicate 1): 78.2 s
clotting time (Table 3A Exp. 1, DAPTTIN, 15 μM, w/o FIXa, duplicate 2): 77.1 s
average clotting time (Table 3A Exp. 2, DAPTTIN, 1.25 μM, 2.2 nM FIXa): 91 s
clotting time (Table 3A Exp. 2, DAPTTIN, 1.25 μM, 2.2 nM FIXa, duplicate 1): 90.7 s
clotting time (Table 3A Exp. 2, DAPTTIN, 1.25 μM, 2.2 nM FIXa, duplicate 2): 90.8 s
average clotting time (Table 3A Exp. 2, DAPTTIN, 1.25 μM, w/o FIXa): 109 s
clotting time (Table 3A Exp. 2, DAPTTIN, 1.25 μM, w/o FIXa, duplicate 1): 108.7 s
clotting time (Table 3A Exp. 2, DAPTTIN, 1.25 μM, w/o FIXa, duplicate 2): 109.3 s
average clotting time (Table 3A Exp. 2, DAPTTIN, 2.5 μM, 2.2 nM FIXa): 88 s
clotting time (Table 3A Exp. 2, DAPTTIN, 2.5 μM, 2.2 nM FIXa, duplicate 1): 88 s
clotting time (Table 3A Exp. 2, DAPTTIN, 2.5 μM, 2.2 nM FIXa, duplicate 2): 88.8 s
average clotting time (Table 3A Exp. 2, DAPTTIN, 2.5 μM, w/o FIXa): 110 s
clotting time (Table 3A Exp. 2, DAPTTIN, 2.5 μM, w/o FIXa, duplicate 1): 110.1 s
clotting time (Table 3A Exp. 2, DAPTTIN, 2.5 μM, w/o FIXa, duplicate 2): 108.9 s
average clotting time (Table 3A Exp. 2, DAPTTIN, 5 μM, 2.2 nM FIXa): 77 s
clotting time (Table 3A Exp. 2, DAPTTIN, 5 μM, 2.2 nM FIXa, duplicate 1): 77 s
clotting time (Table 3A Exp. 2, DAPTTIN, 5 μM, 2.2 nM FIXa, duplicate 2): 76 s
average clotting time (Table 3A Exp. 2, DAPTTIN, 5 μM, w/o FIXa): 104 s
clotting time (Table 3A Exp. 2, DAPTTIN, 5 μM, w/o FIXa, duplicate 1): 103.4 s
clotting time (Table 3A Exp. 2, DAPTTIN, 5 μM, w/o FIXa, duplicate 2): 104.8 s
average clotting time (Table 3A Exp. 2, DAPTTIN, 7.5 μM, 2.2 nM FIXa): 73 s
clotting time (Table 3A Exp. 2, DAPTTIN, 7.5 μM, 2.2 nM FIXa, duplicate 1): 71.6 s
clotting time (Table 3A Exp. 2, DAPTTIN, 7.5 μM, 2.2 nM FIXa, duplicate 2): 73.9 s
average clotting time (Table 3A Exp. 2, DAPTTIN, 7.5 μM, w/o FIXa): 100 s
clotting time (Table 3A Exp. 2, DAPTTIN, 7.5 μM, w/o FIXa, duplicate 1): 100.1 s
clotting time (Table 3A Exp. 2, DAPTTIN, 7.5 μM, w/o FIXa, duplicate 2): 100.5 s
average clotting time (Table 3A Exp. 2, DAPTTIN, 10 μM, 2.2 nM FIXa): 63 s
clotting time (Table 3A Exp. 2, DAPTTIN, 10 μM, 2.2 nM FIXa, duplicate 1): 63.1 s
clotting time (Table 3A Exp. 2, DAPTTIN, 10 μM, 2.2 nM FIXa, duplicate 2): 62.5 s
average clotting time (Table 3A Exp. 2, DAPTTIN, 10 μM, w/o FIXa): 79 s
clotting time (Table 3A Exp. 2, DAPTTIN, 10 μM, w/o FIXa, duplicate 1): 79.1 s
clotting time (Table 3A Exp. 2, DAPTTIN, 10 μM, w/o FIXa, duplicate 2): 78.5 s
average clotting time (Table 3A Exp. 2, DAPTTIN, 12.5 μM, 2.2 nM FIXa): 57 s
clotting time (Table 3A Exp. 2, DAPTTIN, 12.5 μM, 2.2 nM FIXa, duplicate 1): 56.7 s
clotting time (Table 3A Exp. 2, DAPTTIN, 12.5 μM, 2.2 nM FIXa, duplicate 2): 56.7 s
average clotting time (Table 3A Exp. 2, DAPTTIN, 12.5 μM, w/o FIXa): 85 s
clotting time (Table 3A Exp. 2, DAPTTIN, 12.5 μM, w/o FIXa, duplicate 1): 83.6 s
clotting time (Table 3A Exp. 2, DAPTTIN, 12.5 μM, w/o FIXa, duplicate 2): 85.5 s
average clotting time (Table 3B, Pathromtin SL, 1 μM, 2.2 nM FIXa): 105 s
clotting time (Table 3B, Pathromtin SL, 1 μM, 2.2 nM FIXa, duplicate 1): 103.7 s
clotting time (Table 3B, Pathromtin SL, 1 μM, 2.2 nM FIXa, duplicate 2): 105.9 s
average clotting time (Table 3B, Pathromtin SL, 1 μM, w/o FIXa): 139 s
clotting time (Table 3B, Pathromtin SL, 1 μM, w/o FIXa, duplicate 1): 138.3 s
clotting time (Table 3B, Pathromtin SL, 1 μM, w/o FIXa, duplicate 2): 138.8 s
average clotting time (Table 3B, Pathromtin SL, 5 μM, 2.2 nM FIXa): 88 s
clotting time (Table 3B, Pathromtin SL, 5 μM, 2.2 nM FIXa, duplicate 1): 86.6 s
clotting time (Table 3B, Pathromtin SL, 5 μM, 2.2 nM FIXa, duplicate 2): 90.2 s
average clotting time (Table 3B, Pathromtin SL, 5 μM, w/o FIXa): 154 s
clotting time (Table 3B, Pathromtin SL, 5 μM, w/o FIXa, duplicate 1): 152.6 s
clotting time (Table 3B, Pathromtin SL, 5 μM, w/o FIXa, duplicate 2): 155.6 s
average clotting time (Table 3B, Pathromtin SL, 10 μM, 2.2 nM FIXa): 78 s
clotting time (Table 3B, Pathromtin SL, 10 μM, 2.2 nM FIXa, duplicate 1): 76.2 s
clotting time (Table 3B, Pathromtin SL, 10 μM, 2.2 nM FIXa, duplicate 2): 79.8 s
average clotting time (Table 3B, Pathromtin SL, 10 μM, w/o FIXa): 135 s
clotting time (Table 3B, Pathromtin SL, 10 μM, w/o FIXa, duplicate 1): 135.7 s
clotting time (Table 3B, Pathromtin SL, 10 μM, w/o FIXa, duplicate 2): 134.6 s
average clotting time (Table 3B, Pathromtin SL, 15 μM, 2.2 nM FIXa): 75 s
clotting time (Table 3B, Pathromtin SL, 15 μM, 2.2 nM FIXa, duplicate 1): 75.4 s
clotting time (Table 3B, Pathromtin SL, 15 μM, 2.2 nM FIXa, duplicate 2): 75.2 s
average clotting time (Table 3B, Pathromtin SL, 15 μM, w/o FIXa): 151 s
clotting time (Table 3B, Pathromtin SL, 15 μM, w/o FIXa, duplicate 1): 152.8 s
clotting time (Table 3B, Pathromtin SL, 15 μM, w/o FIXa, duplicate 2): 149.3 s
average clotting time (Table 4, 1.25 μM, 2.2 nM FIXa): 95 s
clotting time (Table 4, 1.25 μM, 2.2 nM FIXa, duplicate 1): 94.4 s
clotting time (Table 4, 1.25 μM, 2.2 nM FIXa, duplicate 2): 95 s
average clotting time (Table 4, 1.25 μM, w/o FIXa): 107 s
clotting time (Table 4, 1.25 μM, w/o FIXa, duplicate 1): 106.7 s
clotting time (Table 4, 1.25 μM, w/o FIXa, duplicate 2): 107 s
average clotting time (Table 4, 2.5 μM, 2.2 nM FIXa): 93 s
clotting time (Table 4, 2.5 μM, 2.2 nM FIXa, duplicate 1): 93.6 s
clotting time (Table 4, 2.5 μM, 2.2 nM FIXa, duplicate 2): 93.3 s
average clotting time (Table 4, 2.5 μM, w/o FIXa): 108 s
clotting time (Table 4, 2.5 μM, w/o FIXa, duplicate 1): 107.9 s
clotting time (Table 4, 2.5 μM, w/o FIXa, duplicate 2): 107.6 s
average clotting time (Table 4, 5 μM, 2.2 nM FIXa): 89 s
clotting time (Table 4, 5 μM, 2.2 nM FIXa, duplicate 1): 89.7 s
clotting time (Table 4, 5 μM, 2.2 nM FIXa, duplicate 2): 88.3 s
average clotting time (Table 4, 5 μM, w/o FIXa): 108 s
clotting time (Table 4, 5 μM, w/o FIXa, duplicate 1): 108.4 s
clotting time (Table 4, 5 μM, w/o FIXa, duplicate 2): 107.7 s
average clotting time (Table 4, 7.5 μM, 2.2 nM FIXa): 81 s
clotting time (Table 4, 7.5 μM, 2.2 nM FIXa, duplicate 1): 80.7 s
clotting time (Table 4, 7.5 μM, 2.2 nM FIXa, duplicate 2): 80.5 s
average clotting time (Table 4, 7.5 μM, w/o FIXa): 105 s
clotting time (Table 4, 7.5 μM, w/o FIXa, duplicate 1): 105.2 s
clotting time (Table 4, 7.5 μM, w/o FIXa, duplicate 2): 105.2 s
average clotting time (Table 4, 10 μM, 2.2 nM FIXa): 73 s
clotting time (Table 4, 10 μM, 2.2 nM FIXa, duplicate 1): 72 s
clotting time (Table 4, 10 μM, 2.2 nM FIXa, duplicate 2): 73.2 s
average clotting time (Table 4, 10 μM, w/o FIXa): 104 s
clotting time (Table 4, 10 μM, w/o FIXa, duplicate 1): 104.4 s
clotting time (Table 4, 10 μM, w/o FIXa, duplicate 2): 104.5 s
average clotting time (Table 4, 12.5 μM, 2.2 nM FIXa): 67 s
clotting time (Table 4, 12.5 μM, 2.2 nM FIXa, duplicate 1): 65 s
clotting time (Table 4, 12.5 μM, 2.2 nM FIXa, duplicate 2): 68 s
average clotting time (Table 4, 12.5 μM, w/o FIXa): 100 s
clotting time (Table 4, 12.5 μM, w/o FIXa, duplicate 1): 99.4 s
clotting time (Table 4, 12.5 μM, w/o FIXa, duplicate 2): 100.5 s
average clotting time (Table 4, 15 μM, 2.2 nM FIXa): 56 s
clotting time (Table 4, 15 μM, 2.2 nM FIXa, duplicate 1): 56.1 s
clotting time (Table 4, 15 μM, 2.2 nM FIXa, duplicate 2): 55.5 s
average clotting time (Table 4, 15 μM, w/o FIXa): 78 s
clotting time (Table 4, 15 μM, w/o FIXa, duplicate 1): 77.8 s
clotting time (Table 4, 15 μM, w/o FIXa, duplicate 2): 78 s
